Test results taken from patent publication US20180110824A1, “Macrocyclic Modulators of the Ghrelin Receptor” (Ocera Therapeutics, Inc., priority 2016, published 2018).
Where two headings read alike, the source gives them in different places.

What was measured:
[1] = system: morphine-delayed gastric emptying and gastrointestinal transit in rats; experiment: Opioid (morphine)-delayed gastric emptying and gastrointestinal transit in rats; format: in vivo, rat; details: 3 mg/kg, s.c., rats, FIG. 16A
Description: Opioid analgesics, such as morphine, are well known to delay gastrointestinal transit which is an important side-effect for this class of drugs. The clinical term for this syndrome is opioid bowel dysfunction (OBD). Importantly, patients recovering from abdominal surgery experience post-operative ileus that is further exacerbated by concomitant opioid therapy for post-surgical pain.
• 1. Rats (male, Sprague-Dawley, 250-300 g) are implanted with jugular vein catheters to accommodate dosing of test articles. • 2. Overnight-fasted rats are administered morphine (3 mg/kg s.c.). • 3. […] Radioactivity (^99mTc) in each tissue isolate is measured as a means of measuring the transit of the meal.

[2] = target: T1, human ghrelin receptor (hGHS-R1a) (Homo sapiens, UniProt Q92847); experiment: Aequorin functional assay (ghrelin receptor), CHO-K1 cells co-expressing Gα16 and aequorin; format: cell-based; details: Table 4, functional (agonist) activity, TFA salts unless otherwise noted
T1 construct: host or cells: CHO-K1 co-expressing Gα16 and mitochondrially targeted aequorin
Protocol: This cell line is typically constructed by transfection of the human ghrelin receptor into CHO-K1 cells co-expressing Gα16 and the mitochondrially targeted Aequorin (Ref #ES-WT-A5). • 1. […] Assay buffer: DMEM (Dulbecco's Modified Eagles Medium) containing 0.1% BSA (bovine serum albumin; pH 7.0). • 3. Coelenterazine (Molecular Probes, Leiden, The Netherlands). • Final test concentrations (N=8) for compounds of the invention: 10, 1, 0.3, 0.1, 0.03, 0.01, 0.003, 0.001 μM.
Stock solutions of compounds (10 mM in 100% DMSO) were provided frozen on dry ice and stored at −20° C. prior to use. […] Assay plates were then prepared by appropriate dilution in DMEM medium containing 0.1% BSA. Under these conditions, the maximal final DMSO concentration in the assay was <0.6%.
AequoScreen™ cells were collected from culture plates with Ca^2+ and Mg^2+-free phosphate buffered saline (PBS) supplemented with 5 mM EDTA, pelleted for 2 min at 1000×g re-suspended in DMEM—Ham's F12 containing 0.1% BSA at a density of 5×10^6 cells/mL, and incubated O/N at rt in the presence of 5 μM coelenterazine. After loading, cells were diluted with assay buffer to a concentration of 5×10^5 cells/mL.
For agonist testing, 50 μL of the cell suspension was mixed with 50 μL of the appropriate concentration of test compound or ghrelin (reference agonist) in 96-well plates (duplicate samples). Ghrelin (reference agonist) was tested at several concentrations concurrently with the test compounds in order to validate the experiment. The emission of light resulting from receptor activation in response to ghrelin or test compounds was recorded using the Hamamatsu FDSS 6000 reader (Hamamatsu Photonics K.K., Japan).
Results were expressed as Relative Light Units (RLU). […] EC50, Hill slope and % Emax values are reported.
• 1. Assay performed on CHO-K1 cells expressing the transfected, cloned human ghrelin receptor (hGHS-R1a) and Gα16. • 2. Suspended cells incubated O/N with coelenterazine. • 3. Stimulation of hGHS-R1a activates Gα16, causing […] Ca2+ release which ultimately leads to the oxidation of coelenterazine and the emission of a quantitative luminescent signal. • 4. Ghrelin was used as the positive control. • 5.

[3] = system: gastric emptying in fasted rats; experiment: Gastric emptying in fasted rats (phenol red methylcellulose meal); format: in vivo, rat
Protocol: To examine the effects of compounds of the invention in a model for gastroparesis, compounds were evaluated for possible effects on gastric emptying in fasted rats.
GHRP-6 and test samples were dissolved in vehicle of 9% HPBCD/0.9% NaCl. Immediately following oral administration of methylcellulose (2%) containing phenol red (0.05%) (2 mL/rat), test substances or vehicle (9% HPBCD/0.9% NaCl) were each administered intravenously (i.v.) at a dosing volume of 5 mL/kg.
Male Wistar rats were provided by LASCO (A Charles River Licensee Corporation, Taiwan). Space allocation for 6 animals was 45×23×15 cm. Animals were housed in APEC® cages and maintained in a controlled temperature (22° C.-24° C.) and humidity (60% -80%) environment with 12 h light, 12 h dark cycles for at least one week in the laboratory prior to being used. Free access to standard lab chow for rats (Lab Diet, Rodent Diet, PMI Nutrition International, USA) and tap water was granted. All aspects of this work including housing, experimentation and disposal of animals were performed in general accordance with the Guide for the Care and Use of Laboratory Animals (National Academy Press, Washington, D.C., 1996).
Test substances were each administered intravenously to a group of 5 O/N-fasted Wistar derived male rats weighing 200±20 g immediately after methylcellulose (2%) containing phenol red (0.05%) was administered orally at 2 mL/animal. The animals were then sacrificed 15 minutes later. The stomach was immediately removed, homogenized in 0.1 N NaOH (5 mL) and centrifuged. Following protein precipitation by 20% trichloroacetic acid (0.5 mL)and re-alkalization of the supernatant with 0.1 N NaOH, total phenol red remaining in the stomach was determined by a colorimetric method at 560 nm. A 30 percent or more (≥30%) increase in gastric emptying, detected as the decrease in phenol red concentration in the stomach relative to the vehicle control group, is considered significant.
• 1. Overnight-fasted rats (male Wistar, ˜200 g, N=5/group) were given a meal of methylcellulose (2%) by intragastric gavage. The meal was labeled with phenol red (0.05%). • 2. […] Animals were sacrificed 15 minutes later; the stomach was immediately removed and homogenized in 0.1 N NaOH and centrifuged. • 4. Total phenol red remaining in the stomach was quantified by a colorimetric method at 560 nm. • 5. A >30% increase in gastric emptying, detected based on the phenol red concentration in comparison to the control group, is considered significant.

[4] = Pharmacokinetic analysis in rats (i.v., s.c., p.o.); format: in vivo; details: male, Sprague-Dawley, plasma, iv, 2 mg/kg, rat
Protocol: • 1. Intravenous (i.v.): 2 mg/kg • 2. Subcutaneous (s.c): 2 mg/kg • 3. Oral (p.o.): 8 mg/kg
Whole blood samples were chilled and immediately processed by centrifugation to obtain plasma.
Plasma samples were stored frozen (−70° C.) until analysis.

[5] = target: T2, human growth hormone secretagogue receptor (hGHS-R1a) (Homo sapiens, UniProt Q92847); experiment: Competitive radioligand binding assay (ghrelin receptor), [125I]-ghrelin displacement on GHS-R/HEK 293 membranes
T2 construct: purchased PerkinElmer BioSignal #RBHGHSM; host or cells: HEK-293, stably transfected

motilin receptor = motilin receptor (Homo sapiens, UniProt O43193); experiment: Selectivity for the ghrelin receptor versus the motilin receptor; format: binding
Description: The level of agonist activity and selectivity for representative compounds of the invention are shown below in Table 4.

[6] = Table 4, TFA salts unless otherwise noted, read-out: Ki
[7] = Table 3B, binding activity at the human ghrelin receptor, read-out: Ki

motilin receptor, sequence (O43193 whole entry, species assumed): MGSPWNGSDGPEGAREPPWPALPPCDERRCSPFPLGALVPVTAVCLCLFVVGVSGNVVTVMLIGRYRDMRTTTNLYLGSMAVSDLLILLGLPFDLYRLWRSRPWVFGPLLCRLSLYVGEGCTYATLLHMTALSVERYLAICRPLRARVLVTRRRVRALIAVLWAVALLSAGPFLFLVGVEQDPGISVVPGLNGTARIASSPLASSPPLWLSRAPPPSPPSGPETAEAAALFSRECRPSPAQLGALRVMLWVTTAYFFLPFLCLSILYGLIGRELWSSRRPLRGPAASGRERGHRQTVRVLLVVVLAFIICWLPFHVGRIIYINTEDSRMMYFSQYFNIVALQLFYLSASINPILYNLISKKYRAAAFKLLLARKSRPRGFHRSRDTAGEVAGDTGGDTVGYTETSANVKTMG
T1 sequence (Q92847 whole entry): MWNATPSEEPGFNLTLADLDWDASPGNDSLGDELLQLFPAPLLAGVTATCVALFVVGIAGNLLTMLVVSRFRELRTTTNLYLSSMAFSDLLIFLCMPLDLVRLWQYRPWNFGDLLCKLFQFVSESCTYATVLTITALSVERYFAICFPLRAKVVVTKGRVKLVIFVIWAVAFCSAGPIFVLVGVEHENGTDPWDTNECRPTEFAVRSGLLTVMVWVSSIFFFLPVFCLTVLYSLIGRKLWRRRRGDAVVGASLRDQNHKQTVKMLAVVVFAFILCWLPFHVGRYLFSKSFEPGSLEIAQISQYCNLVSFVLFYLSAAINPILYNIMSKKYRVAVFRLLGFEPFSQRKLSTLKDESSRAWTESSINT
T2 sequence (Q92847 whole entry): as above

Row | SMILES | EC50 ([2]; read-out: EC50) [nM] | Selectivity (motilin receptor) | Ki [5, 6] [nM] | Ki [5, 7] [nM] | other results
1 | CN1CC[C@]23c4c5ccc(O)c4O[C@H]2[C@@H](O)C=C[C@H]3[C@H]1C5 [Morphine, morphine, reference compound] | – | – | – | – | gastric emptying and intestinal transit [1]: significantly delayed gastric emptying and intestinal transit
2 | CCC(C)[C@@H]1NCCOc2ccccc2CCCNC(=O)[C@@H](Cc2ccc(Cl)cc2)NC(=O)[C@@H](C)N(C)C1=O (stereo partly shown) [compound 25] | – | – | – | – | EC50 ([2]; EC50 (nM)): 1 to 100 nM; gastric emptying ([3]; 30 μg/kg, fasted rats): demonstrated gastric emptying; increase in gastric emptying relative to the vehicle control group ([3]; 100 μg/kg i.v., fasted rats): 39%; clearance [4]: 67 mL/min/kg; half-life ([4]; read-out: Elimination (t1/2, min)): 31 min; Ki ([5]; Ki (nM), Binding activity at the human ghrelin receptor, [125I]-ghrelin displacement): 0.1 to 10 nM; Ki ([5]; Ki (nM), Table 4, TFA salts unless otherwise noted): 0.1 to 10 nM
3 | CCC(C)[C@@H]1NCCOc2ccccc2CCCNC(=O)[C@@H](Cc2ccc(OC)cc2)NC(=O)[C@@H](C)N(C)C1=O (stereo partly shown) [compound 27] | 1 to 100 | >7100/1 | 0.1 to 10 | – | Ki ([5]; Binding activity at the human ghrelin receptor, [125I]-ghrelin displacement, read-out: Ki): 0.1 to 10 nM
4 | C[C@@H]1C(=O)N[C@H](Cc2ccc(Cl)cc2Cl)C(=O)NCCCc2ccccc2OCCN[C@@H](C2CC2)C(=O)N1C [compound 314] | 1 to 100 | >5500/1 | 0.1 to 10 | 0.1 to 10 | –
5 | C[C@H]1NC(=O)C2(CCCC2)NCCOc2ccccc2/C=C/CNC(=O)[C@H](Cc2cccc(Cl)c2)NC1=O [compound 351] | 1 to 100 | 450/1 | 10 to 100 | – | Ki ([5]; Table 3C, read-out: Ki): 10 to 100 nM
6 | C[C@@H]1C(=O)N[C@H](Cc2ccc(F)cc2)C(=O)NCCCc2ccc(F)cc2OCCN[C@@H](C2CC2)C(=O)N1C [compound 372] | 1 to 100 | 2500/1 | 0.1 to 10 | 0.1 to 10 | –
7 | C[C@@H]1C(=O)N[C@H](Cc2ccc(F)cc2)C(=O)NCCCc2cc(NS(C)(=O)=O)ccc2OCCN[C@@H](C2CC2)C(=O)N1C [compound 374] | 1 to 100 | 250/1 | 10 to 100 | 10 to 100 | –
8 | CC[C@H](C)[C@@H]1NCCOc2ccc(F)cc2CCCNC(=O)[C@H](Cc2cccc(Cl)c2)NC(=O)C2(CCCC2)NC1=O [compound 382] | 100 to 1000 | 74/1 | 10 to 100 | 10 to 100 | –
9 | CCN(CC)CCNC(=O)c1cc(Cl)c(N)cc1OC [metoclopramide, Metoclopramide, reference compound] | – | – | – | – | increase in gastric emptying relative to the vehicle control group ([3]; 10 mg/kg i.v., fasted rats): 41%; gastric emptying of a meal in naïve rat ([3]; i.v., FIGS. 14A and 14B): demonstrated significant gastric emptying
